Experimental findings from BindingDB's records for doi:10.1016/j.ejmech.2018.09.067 (University of Louvain, 2018) are described below.

The nature of assay [1]: Displacement of [3H]WY 14643 from human recombinant PPARalpha receptor at 10 uM after 120 mins by scintillation counting analysis relative to control. On the technique in general: Loss of bound radioactivity is the signal in a displacement assay; it reports binding, not function.
Assay [2] is described as follows: Inhibition of human carbonic anhydrase 2 using 4-nitrophenyl acetate as substrate after 20 mins by spectrophotometric analysis.
The nature of assay [3]: Displacement of [3H]8-OH-DPAT from recombinant human 5-HT1A receptor after 60 mins by scintillation counting analysis.
A short description of assay [4]: Inhibition of human MAOA using kynuramine as substrate after 20 mins by spectrophotometric analysis.
A short description of assay [5]: Inhibition of human IDO using L-tryptophan as substrate after 30 mins by Ehrlich's reagent based assay.
Assay [6] in a line: Inhibition of human recombinant Lck using Ulight-Poly GAT[EAY(1:1:1)]n as substrate after 10 mins by LANCE analysis. Background: In TR-FRET formats the signal depends on donor and acceptor labels being close together.
Assay [7] in a line: Displacement of [3H]muscimol from recombinant human GABAalpha1beta2gamma2 measured after 120 mins by scintillation counting method.
Assay [8] in a line: Inhibition of human recombinant PDE3A using [3H]cAMP after 20 mins by scintillation counting analysis.
Assay [9] is described as follows: Inhibition of human recombinant ACE using Abz-FRK(Dnp)-P-OH as substrate after 30 mins by fluorimetric analysis.
Assay [10] is described as follows: Displacement of [125I]pirenzepine from human recombinant M1 receptor after 60 mins by scintillation counting analysis.
Assay [11] is described as follows: Inhibition of human recombinant C-terminal His-tagged PHGDH (1 to 533 residues) expressed in Escherichia coli using 3-phosphoglycerate as substrate.
Assay [12] in a line: Inhibition of human thrombin using Z-GPR-AMC as substrate after 30 mins by fluorimetric analysis.
Assay [13] in a line: Inhibition of human recombinant Arg1 using L-arginine as substrate after 5 mins in presence of [guanidino-14C]-L-arginine by liquid scintillation counting analysis.
Assay [14] is described as follows: Inhibition of human recombinant acetylcholinesterase using acetylthiocholine as substrate after 30 mins by spectrophotometric analysis.
The nature of assay [15]: Inhibition of human recombinant COX1 using arachidonic acid as substrate after 3 mins by fluorimetric analysis.
Assay [16] is described as follows: Inhibition of human recombinant full-length LDHA using sodium pyruvate as substrate after 60 mins by resazurin dye-based assay. On the technique in general: The colour change of resazurin is a common sign of viable cells or microbes.
Assay [17] in a line: Displacement of [3H]CP 55940 from human recombinant CB1 receptor after 120 mins by scintillation counting analysis.

What is called IC50 is the point on the concentration scale where inhibition reaches its midpoint. Consider `O=C(NNC(=S)Nc1ccc(Cl)c(Cl)c1)c1ccccc1O`, for which the IC50 in [1] amounted to 52 nM; in assay [2] it was 29 nM; in [3] it was 0.6 nM; in assay [4], 40 nM; in [5] it was 37000 nM; in assay [6] it was 31 nM. Also, the IC50 in [7] is 75 nM; in assay [8], 490 nM; in assay [9], 0.7 nM; in [10], 22 nM; in assay [11], 8700 nM; in [12], 0.103 nM. For the same compound, the concentration for half-maximal inhibition (IC50) was determined as 13000 nM in [13]; 520 nM in [14]; 363 nM in the assay “Inhibition of human MAGL”; 8 nM in assay [15]; 577000 nM in [16]; 0.58 nM in [17].
